For 21 compounds, Emax results are on record in US20100240642A1, “1H-Indole-2-Carboxylic Acid Derivatives Useful As PPAR Modulators” (SMITHKLINE BEECHAM CORPORATION, priority 2006, published 2010).

This assay deals with T1, hPPARγ receptor (Homo sapiens, UniProt P37231).
T1 construct: expressed in transfected cells; host or cells: CV-1 (African Green Monkey kidney, ATCC CCL-70)
T1 sequence (P37231 172-475 isoform P37231-2): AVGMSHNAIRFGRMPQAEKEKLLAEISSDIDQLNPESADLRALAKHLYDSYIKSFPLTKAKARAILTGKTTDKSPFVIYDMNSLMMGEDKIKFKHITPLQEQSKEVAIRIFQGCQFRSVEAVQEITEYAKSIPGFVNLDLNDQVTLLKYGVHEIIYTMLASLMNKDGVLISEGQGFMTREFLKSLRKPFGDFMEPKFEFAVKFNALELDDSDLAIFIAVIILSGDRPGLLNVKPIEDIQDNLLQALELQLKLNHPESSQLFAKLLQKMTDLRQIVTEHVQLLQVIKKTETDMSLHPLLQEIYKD
The assay is described as follows: PPARγ Cell-based luciferase assay. The source says:
Plasmids—PCR primers containing Kpnl and BamHI restriction sites were used to amplify PPARγ ligand binding domain (LBD) fragment (172-475) from a full-length human clone. The LBD fragment was ligated into the multiple cloning site of pFA-CMV (Stratagene). The resulting construct (pFA-CMV-GAL4-hPPARγLBD carried a fusion of the LBD with the yeast-derived GAL4 DNA-binding domain under the control of the CMV immediate early promoter. Reporter construct UAStkLuc carries a single 17 bp (CGGAGTACTGTCCTCCG) upstream activating sequence (UAS), the tk minimal promoter, and the firefly luciferase gene. The integrity of each construct was confirmed by diagnostic restriction digestion and by sequencing. Plasmid DNA was prepared using Qiagen Maxi-Prep kits.
PPARγ Cell-based luciferase assay—African Green Monkey kidney cell line CV-1 (ATCC CCL-70) was maintained in Dulbecco's Modified Eagle's Medium (D-MEM) containing 10% fetal bovine serum, 2 mM glutamine, and 1% penicillin/streptomycin (pen/strep). In preparation for luciferase assays, CV-1 cells were grown in charcoal-stripped cell medium containing D-MEM/F-12 medium supplemented with 5% or 3% dextran-treated/charcoal-stripped (CS) fetal bovine serum, 2 mM glutamine, with or without 1% pen/strep, as described below. CS fetal bovine serum was purchased from Hyclone; all other cell culture reagents were from Gibco.
The luciferase protocol is a multi-day procedure. On day 1, confluent cells in maintenance medium were subcultured 1:10 into T-175 cm^2 flasks containing 50 mL of 3% CS medium with pen/strep. These flasks were allowed to incubate at 5% CO2 and 37° C. for 72 hours.
Cells were harvested by trypsinization and then transfected using FuGENE (Roche) according to the manufacturer's specifications. Briefly, each transfection contained 0.55 μg pFA_CMV_GAL4_hPPARγ_LBD plasmid, 10.9 μg UAStkLUC, and 24 μg pBluescript (carrier DNA). Plasmid DNA was mixed with FuGENE in OptiMEM-1 medium and incubated for 30 min at room temperature. During this incubation, cells were harvested into 3% CS medium without pen-strep and dispensed at 14 million cells per T-175 cm^2 flask. Transfection mixes were added to the flasks and incubated overnight at 5% CO2 and 37° C.
Transfected cells were added to 384-well plates containing pharmacological agents. Rosiglitazone standard was reconstituted in DMSO at 1 mM. For 11-point dose-response experiments, the compounds were 3-fold serially diluted in DMSO and then stamped to 384-well assay plates (NUNC, catalog #164564) at 0.5 μL/well using a Beckman FX. DMSO and agonist control compound Rosiglitazone (1 mM) were each stamped at 0.5 μL/well to columns 23 and 24, respectively, of the 384-well plates. Transfected cells were harvested in 5% CS medium with pen/strep and dispensed at 10,000 cells/well (50 μL) onto the prepared 384-well compound plates using a Titertek Multidrop. Following overnight incubation at 5% CO2 and 37° C., Steady-Glo reagent (Promega) was added to the assay plates using a Multidrop. Plates were incubated for 10 min to ensure complete cell lysis and read in a ViewLux (PerkinElmer). […] Partial agonism is defined here as 20-80% activation (relative to full agonist rosiglitazone) at concentrations of 10^−6 M or less.

Where [1] appears, read: CV-1 cells transfected with GAL4-hPPARγ LBD and UAStkLuc, at concentrations of 10^−6 M or less, read-out: agonism of the hPPARγ receptor (activation relative to full agonist rosiglitazone).
The mark [2] stands for this setting: CV-1, read-out: agonism of the hPPARγ receptor (activation relative to full agonist rosiglitazone).

Structures are written as SMILES. Counter-ions that a name gives are not always drawn. Like-named read-outs stand apart in the source and are kept apart here.

For the compound `CC(C)CCOc1cc(Cn2c(C(=O)O)c(-c3ccc(C(C)(C)C)cc3)c3ccccc32)cc(OCC2CC2)c1` [Example 6, 1-({3-[(cyclopropylmethyl)oxy]-5-[(3-methylbutyl)oxy]phenyl}methyl)-3-[4-(1,1-dimethylethyl)phenyl]-1H-indole-2-carboxylic acid], the Emax under setting [1] is 20 to 80%.
Same read-out and setting: for `COCCOc1cc(Cn2c(C(=O)O)c(-c3ccc(C(C)(C)C)cc3)c3ccccc32)cc(C(F)(F)F)c1` [Example 64, 3-[4-(1,1-dimethylethyl)phenyl]-1-{[3-{[2-(methyloxy)ethyl]oxy}-5-(trifluoromethyl)phenyl]methyl}-1H-indole-2-carboxylic acid] the value was 20 to 80%.
Same read-out and setting: for `CC(C)(C)c1ccc(-c2c(C(=O)O)n(Cc3cccc(N4CCSCC4)c3)c3ccccc23)cc1` [Example 44, 3-[4-(1,1-dimethylethyl)phenyl]-1-{[3-(4-thiomorpholinyl)phenyl]methyl}-1H-indole-2-carboxylic acid] the value was 20 to 80%; for `COCCOC(=O)N1CCN(c2cccc(Cn3c(C(=O)O)c(-c4ccc(C(C)(C)C)cc4)c4ccccc43)c2)CC1` [Example 48, 3-[4-(1,1-dimethylethyl)phenyl]-1-({3-[4-({[2-(methyloxy)ethyl]oxy}carbonyl)-1-piperazinyl]phenyl}methyl)-1H-indole-2-carboxylic acid], 20 to 80%.
For the compound `COCCOc1cc(Cn2c(C(=O)O)c(-c3ccc(C(C)(C)C)cc3)c3ccccc32)cc(OC(=O)N2CCNC2=O)c1` [Example 53, 3-[4-(1,1-dimethylethyl)phenyl]-1-[(3-{[2-(methyloxy)ethyl]oxy}-5-{[(2-oxo-1-imidazolidinyl)carbonyl]oxy}phenyl)methyl]-1H-indole-2-carboxylic acid], under setting [2], the Emax was 20 to 80%.
As to `COCCOc1cc(Cn2c(C(=O)O)c(-c3cc4ccccc4o3)c3ccccc32)cc(OCCOC)c1` [Example 60, 3-(1-benzofuran-2-yl)-1-[(3,5-bis{[2-(methyloxy)ethyl]oxy}phenyl)methyl]-1H-indole-2-carboxylic acid], the Emax under setting [1] lay in the range of 20 to 80%.
Same read-out and setting: for `COCCOc1cc(Cn2c(C(=O)O)c(-c3ccc(C(C)(C)C)cc3)c3ccccc32)cc(-c2ccc(C(=O)O)cc2)c1` [Example 20] the value was 20 to 80%; for `CC(C)(C)c1ccc(-c2c(C(=O)O)n(Cc3cc(OCC4CC4)cc(C(F)(F)F)c3)c3ccccc23)cc1` [Example 65, 1-{[3-[(cyclopropylmethyl)oxy]-5-(trifluoromethyl)phenyl]methyl}-3-[4-(1,1-dimethylethyl)phenyl]-1H-indole-2-carboxylic acid], 20 to 80%.
The same measure, in the same setting: for `CN(C)CCCOc1cc(Cn2c(C(=O)O)c(Cc3cccc(C(F)(F)F)c3)c3ccccc32)cc(OCC2CC2)c1` [Example 57, 1-[(3-[(cyclopropylmethyl)oxy]-5-{[3-(dimethylamino)propyl]oxy}phenyl)methyl]-3-{[3-(trifluoromethyl)phenyl]methyl}-1H-indole-2-carboxylic acid hydrochloride] the value was 20 to 80%; for `CC(C)(C)c1ccc(-c2c(C(=O)O)n(Cc3cc(OCc4ccccc4)cc(-c4ccc(C(=O)O)cc4)c3)c3ccccc23)cc1` [Example 19, 1-({4′-carboxy-5-[(phenylmethyl)oxy]-3-biphenylyl}methyl)-3-[4-(1,1-dimethylethyl)phenyl]-1H-indole-2-carboxylic acid], 20 to 80%; for `COCCOc1cc(Cn2c(C(=O)O)c(-c3ccc(C(C)(C)C)cc3)c3ccccc32)cc(OCCOC)c1` [Example 66, 1-[(3,5-bis{[2-(methyloxy)ethyl]oxy}phenyl)methyl]-3-[4-(1,1-dimethylethyl)phenyl]-1H-indole-2-carboxylic acid], 20 to 80%.
On the same count and under the same terms, for `CC(=O)c1ccc(-c2c(C(=O)O)n(Cc3cc(-c4ccc(C(=O)O)cc4)ccc3C)c3ccccc23)cc1` [Example 14, 3-(4-acetylphenyl)-1-[(4′-carboxy-4-methyl-3-biphenylyl)methyl]-1H-indole-2-carboxylic acid] the value was 20 to 80%; for `CC(C)(C)c1ccc(-c2c(C(=O)O)n(Cc3cccc(-c4ccc(OCc5ccccc5)cc4)c3)c3ccccc23)cc1` [Example 8, 3-[4-(1,1-dimethylethyl)phenyl]-1-({4′-[(phenylmethyl)oxy]-3-biphenylyl}methyl)-1H-indole-2-carboxylic acid], 20 to 80%.
In the case of `COCCOc1cc(Cn2c(C(=O)O)c(-c3ccc(C(C)(C)C)cc3)c3ccccc32)cc(OC(=O)N2CCN(C)CC2)c1` [Example 50, 3-[4-(1,1-dimethylethyl)phenyl]-1-[(3-{[2-(methyloxy)ethyl]oxy}-5-{[(4-methyl-1-piperazinyl)carbonyl]oxy}phenyl)methyl]-1H-indole-2-carboxylic acid], the Emax under setting [2] lay within 20 to 80%.
In the case of `CC(C)(C)c1ccc(-c2c(C(=O)O)n(Cc3cccc(-c4ccc(C(=O)O)cc4)c3)c3ccccc23)cc1` [Example 7, 1-[(4′-carboxy-3-biphenylyl)methyl]-3-[4-(1,1-dimethylethyl)phenyl]-1H-indole-2-carboxylic acid], the Emax under setting [1] lay within 20 to 80%.
Still for that read-out and setting: for `COC(=O)N1CCN(c2cccc(Cn3c(C(=O)O)c(-c4ccc(C(C)(C)C)cc4)c4ccccc43)c2)CC1` [Example 36, 3-[4-(1,1-dimethylethyl)phenyl]-1-[(3-{4-[(methyloxy)carbonyl]-1-piperazinyl}phenyl)methyl]-1H-indole-2-carboxylic acid] the value was 20 to 80%; for `CC(C)(C)c1ccc(-c2c(C(=O)O)n(Cc3cccc(N4CCS(=O)(=O)CC4)c3)c3ccccc23)cc1` [Example 45, 3-[4-(1,1-dimethylethyl)phenyl]-1-{[3-(1,1-dioxido-4-thiomorpholinyl)phenyl]methyl}-1H-indole-2-carboxylic acid], 20 to 80%; for `O=C(O)c1c(Cc2cccc(C(F)(F)F)c2)c2ccccc2n1Cc1cc(OCCn2cccc2)cc(OCC2CC2)c1` [Example 54, 1-[(3-[(cyclopropylmethyl)oxy]-5-{[2-(1H-pyrrol-1-yl)ethyl]oxy}phenyl)methyl]-3-{[3-(trifluoromethyl)phenyl]methyl}-1H-indole-2-carboxylic acid], 20 to 80%.
The same measure, in the same setting: for `CC(C)(C)c1ccc(-c2c(C(=O)O)n(Cc3cc(C(F)(F)F)cc(C(F)(F)F)c3)c3ccccc23)cc1` [Example 63, 1-{[3,5-bis(trifluoromethyl)phenyl]methyl}-3-[4-(1,1-dimethylethyl)phenyl]-1H-indole-2-carboxylic acid] the value was 20 to 80%; for `CC(C)(C)c1ccc(-c2c(C(=O)O)n(Cc3cccc(N4CCN(S(N)(=O)=O)CC4)c3)c3ccccc23)cc1` [Example 39, 1-({3-[4-(aminosulfonyl)-1-piperazinyl]phenyl}methyl)-3-[4-(1,1-dimethylethyl)phenyl]-1H-indole-2-carboxylic acid], 20 to 80%.
Take `CC(C)(C)c1ccc(-c2c(C(=O)O)n(Cc3cccc(N4CCN(C(N)=O)CC4)c3)c3ccccc23)cc1` [Example 37, 1-({3-[4-(aminocarbonyl)-1-piperazinyl]phenyl}methyl)-3-[4-(1,1-dimethylethyl)phenyl]-1H-indole-2-carboxylic acid]: the Emax under setting [1] fell in the range of 20 to 80%.
